How the values were obtained:
[1] = Test 2: reduction-resistance against glutathione (ESR); type: physicochemical; conditions: 10 mM glutathione, pH7.2, one hour after colocalization with GSH
Method: It is known that, in general, while the interior of a cell is a reductive environment with high concentrations (0.5 mM to 10 mM) of glutathione present, on the order of only one over 100 to 1000 of that in the cell is present in blood.

[2] = Test 3: reduction-resistance against ascorbic acid (ESR); type: physicochemical; conditions: 3.6 mM AsA, PBS buffer pH 7.4
Excerpt: AsA, also referred to as vitamin C, is present in general at high concentrations in blood.

[3] = Test 4: in-blood retention after vein injection (ESR of blood plasma); conditions: in vivo, mouse, injected in the vein
Method: Each of N-TEMPO-RNP and O-TEMPO-RNP prepared as described above was independently injected in the vein of a different mouse, and after a given time period, laparotomy was performed to carry out blood collection from the heart. After blood collection, centrifugal separation was performed at 6,200 rpm (2000×g) for 10 minutes to obtain blood plasma. When the ESR spectrum of the obtained blood plasma was measured, an ESR signal of each RNP was observed from within the blood. In addition, when the disposition thereof was examined, the half-life was approximately 20 minutes for the former (FIG. 9) and approximately one hour for the latter (FIG. 10).

[4] = test system: Cerebral ischemia model rat; assay: Test 5 (1): treatment of cerebral ischemia model rat; conditions: in vivo
[5] = test system: cerebral ischemia model rats

Compound | decrease in the intensity of the ESR signal [1] [%] | half-life (ESR signal) [2] [s] | half-life [3] [min] | cell death-protection effect in TTC-stained brain [4] | cell death in TTC-stained brain ([4]; iv) | average blood pressure at the time of agent administration ([5]; cerebral ischemia model rats, N=20) | neurological symptom score ([5]; score 0-3, N=20)
2,2,6,6-tetramethylpiperidino oxy radical [TEMPO] | 50 | ≤ 20 | – | – | – | – | –
CC1(C)CC(O)CC(C)(C)N1[O] [Tempol, 4-hydroxy-2,2,6,6-tetramethylpiperidine-1-oxyl] | – | – | < 1 | more cell death-protection effect at a given level or greater was obtained than with intravenous administration | more effect than N-TEMPO-RNP was not observed | decreased significantly | no significant differences

From patent US8980241B2, “Polymerized cyclic nitroxide radical compound and use thereof” (University of Tsukuba, priority 2008, dated 2015)
